Source: patent US12643877B2, “Substituted tetrahydroisoquinoiline derivative as a D1 positive allosteric modulator” (UCB Biopharma SRL, priority 2019, dated 2026)
Several values for one entry are separate records, joined by “and”; a condition that tells them apart may be missing. Equal entries are not always repeated.

Key:
CYP3A4 = CYP3A4 induction assay in cryopreserved human hepatocytes; type: in vitro ADME
Method: The objective of the human hepatocyte assay is to characterize the induction potential of Compound of formula (I) by measuring the CYP3A4 activities after 3-days of hepatocytes treatment with culture medium alone or culture medium containing increasing concentration of NCE.
To this aim, cryopreserved human hepatocytes from a single donor are seeded on a 48 well collagen coated plate so that the final seeding density is 0.2×10^6 cells/well (final volume per well 0.25 mL). The cells are then incubated in seeding medium at 37° C., 95% humidity, 5% CO2 to allow the cells to attach. […]
For catalytic activity determination, solution of the CYP3A4 probe substrate, midazolam (final concentration 2.5 μM) is prepared in pre warmed assay medium. […] An aliquot of supernatant is diluted with deionised water and levels of 1-hydroxymidazolam is quantified using generic LC MS/MS methods.
The hepatocytes are solubilised in 0.1M sodium hydroxide at room temperature and protein content in each well determined using Pierce™ BCA Protein Assay Kit (Thermo Scientific) using bovine serum albumin as a standard.
The fold-induction (increase in CYP activity) is obtained by taking the ratio of the measured enzymatic activity obtained in hepatocytes treated with Compound of formula (I), over the one obtained in control hepatocytes treated with vehicle. […]

dopamine D1 receptor [1] = molecular target: T1, dopamine D1 receptor (Homo sapiens, UniProt P21728); assay: cAMP HTRF potentiation assay (presence of EC20 dopamine); type: cell-based
T1 construct: host or cells: LMtk (Ltk-) mouse fibroblast cells
T1 sequence (P21728 whole entry): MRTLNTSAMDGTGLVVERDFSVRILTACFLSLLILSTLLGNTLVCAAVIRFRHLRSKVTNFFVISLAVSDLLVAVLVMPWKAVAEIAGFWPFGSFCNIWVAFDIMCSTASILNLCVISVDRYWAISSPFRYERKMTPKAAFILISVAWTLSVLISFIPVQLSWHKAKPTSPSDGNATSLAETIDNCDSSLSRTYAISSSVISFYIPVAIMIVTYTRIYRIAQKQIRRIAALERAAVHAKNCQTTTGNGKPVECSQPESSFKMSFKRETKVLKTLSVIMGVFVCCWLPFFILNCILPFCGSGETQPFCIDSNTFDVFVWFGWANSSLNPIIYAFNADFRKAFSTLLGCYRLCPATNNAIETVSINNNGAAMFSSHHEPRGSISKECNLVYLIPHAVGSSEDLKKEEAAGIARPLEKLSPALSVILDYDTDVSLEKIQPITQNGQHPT
Text: (§1) Assays have been designed to measure the effects of compounds in accordance with the present invention in the absence of dopamine (“activation assay”) and in the presence of dopamine (“potentiation assay”).
The potentiation assay measures the ability of compounds to increase the levels of cAMP produced by a low-threshold concentration of dopamine. The concentration of dopamine used ([EC20]) is designed to produce 20% stimulation compared to the maximal response (100%) seen with increasing the concentration of dopamine. To measure this potentiation increasing concentrations of the compound with the [EC20] of dopamine are incubated and the potentiation is measured as increases in cAMP production and concentration of compound which produces 50% of the potentiation of the cAMP levels is measured.
(§2) Cells were cultured at 37° C. in a humidified atmosphere of 5% CO2. […]
The measurement of changes in intracellular cyclic adenosinemonophopshpate (cAMP) was determined using the HTRF cAMP dynamic assay kit from CisBio (Codolet, France). […] The tracer binding is determined by an anti-cAMP antibody labeled with cryptate. The effects of the compound alone (agonism) was determined by performing the assay in the absence of dopamine, whilst the effect of the compound as a positive allosteric modulator (PAM) was determined in the presence of an EC20 concentration of dopamine. […]

dopamine D1 receptor [2] = molecular target: T1, dopamine D1 receptor; assay: cAMP HTRF activation assay (absence of dopamine); type: cell-based; settings: L-M(TK-), 10 μM compound, LMtk cells expressing D1, read-out: % of activation (compared to dopamine maximal response)
Text: as §1
The activation assay measures the stimulation of the production of cyclic adenosinemonophosphate (cAMP) in the Homogeneous Time Resolved Fluorescent (HTRF) assay, with the maximum increase in cAMP by increasing concentrations of the endogenous agonist, dopamine, defined as 100% activation.
as §2
The measurement of changes in intracellular cyclic adenosinemonophopshpate (cAMP) was determined using the HTRF cAMP dynamic assay kit from CisBio (Codolet, France). […] The tracer binding is determined by an anti-cAMP antibody labeled with cryptate. The effects of the compound alone (agonism) was determined by performing the assay in the absence of dopamine, whilst the effect of the compound as a positive allosteric modulator (PAM) was determined in the presence of an EC20 concentration of dopamine. […] This is then incubated for a further 60 min at room temperature and changes in HTRF fluorescent emission ratio determined according to manufacturer's instructions using an Envision plate reader (Perkin Elmer, Zaventem, Belgium) with laser excitation. […]

[3] = molecular target: T2, human GABAA receptor α1,β2 and γ2 subunits (Homo sapiens, UniProt P14867+P18507+P47870); assay: Automated patch clamp studies on GABAA receptor cells; type: cell-based; settings: 10 μM compound; GABA 15 μM; CHO-K1 cells; read-out: percentage of inhibition of the GABAA receptor
T2 construct: expressed in transfected cells; host or cells: CHO-K1 cells
T2 sequence (P14867 28-456): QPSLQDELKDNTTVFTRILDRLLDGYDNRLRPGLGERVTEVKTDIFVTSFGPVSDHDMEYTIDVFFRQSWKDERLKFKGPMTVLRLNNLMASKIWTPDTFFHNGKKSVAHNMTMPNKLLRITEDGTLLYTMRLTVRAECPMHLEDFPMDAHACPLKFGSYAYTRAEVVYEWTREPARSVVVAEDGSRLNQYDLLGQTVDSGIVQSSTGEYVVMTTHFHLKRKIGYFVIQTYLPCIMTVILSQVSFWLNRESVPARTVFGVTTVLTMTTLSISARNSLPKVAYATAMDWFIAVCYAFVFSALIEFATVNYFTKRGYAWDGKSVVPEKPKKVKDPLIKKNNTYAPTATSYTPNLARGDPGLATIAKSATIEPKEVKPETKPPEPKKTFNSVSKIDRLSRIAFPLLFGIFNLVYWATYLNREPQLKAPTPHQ
T2 sequence (P47870 25-512 limits assumed): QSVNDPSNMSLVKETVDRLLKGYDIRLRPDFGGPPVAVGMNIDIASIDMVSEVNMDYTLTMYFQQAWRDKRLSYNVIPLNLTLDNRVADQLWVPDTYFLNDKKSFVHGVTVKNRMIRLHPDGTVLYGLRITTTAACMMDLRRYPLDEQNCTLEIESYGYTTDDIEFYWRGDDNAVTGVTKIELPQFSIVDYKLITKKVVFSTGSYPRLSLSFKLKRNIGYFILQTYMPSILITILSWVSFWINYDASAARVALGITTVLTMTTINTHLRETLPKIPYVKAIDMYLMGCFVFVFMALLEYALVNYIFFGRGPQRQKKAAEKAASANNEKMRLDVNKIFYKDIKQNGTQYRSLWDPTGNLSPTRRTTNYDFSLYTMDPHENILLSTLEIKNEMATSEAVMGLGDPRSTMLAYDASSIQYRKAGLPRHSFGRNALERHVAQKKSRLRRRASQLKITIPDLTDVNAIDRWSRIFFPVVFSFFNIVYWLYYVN
T2 sequence (P18507 40-475): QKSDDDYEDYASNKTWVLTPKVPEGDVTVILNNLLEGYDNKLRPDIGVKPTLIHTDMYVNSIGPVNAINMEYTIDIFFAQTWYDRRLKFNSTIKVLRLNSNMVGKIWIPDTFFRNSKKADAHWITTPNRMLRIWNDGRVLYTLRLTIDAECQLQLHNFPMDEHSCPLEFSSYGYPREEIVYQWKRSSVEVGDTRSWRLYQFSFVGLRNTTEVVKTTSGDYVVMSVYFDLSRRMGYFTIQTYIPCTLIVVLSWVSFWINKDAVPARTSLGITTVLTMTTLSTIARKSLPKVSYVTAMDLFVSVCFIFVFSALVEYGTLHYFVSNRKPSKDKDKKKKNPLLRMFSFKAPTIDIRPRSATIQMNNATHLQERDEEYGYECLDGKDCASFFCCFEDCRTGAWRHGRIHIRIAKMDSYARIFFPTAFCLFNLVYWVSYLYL
Method: CHO-K1 cells stably expressing human GABAA receptor α1,β2 and γ2 subunits were used. The cells were harvested using trypsin and maintained in serum-free medium at room temperature. The cells were washed and re-suspended in extracellular solution before testing.
Experiments on human GABAA (α1β2γ2) channels were conducted using an automated patch clamp assay (IonFlux™ HT). Compounds were tested at 3 concentrations (0.1, 1, and 10 μM) in 3 to 4 cells. The external solution for recording GABAA currents was composed of sodium chloride 137 mM, potassium chloride 4 mM, calcium chloride 1.8 mM, magnesium chloride 1 mM, HEPES 10 mM, and glucose 10 mM. Both external and internal solutions were titrated with NaOH or KOH to obtain a pH of 7.35 or 7.3, respectively. The internal pipette solution contained potassium fluoride 70 mM, potassium chloride 60 mM, sodium chloride 70 mM, HEPES 5 mM, EGTA 5 mM, and Magnesium ATP 4 mM. The final concentration of vehicle used to dilute compounds was 0.33% DMSO in each well. Bicuculline (0.032 to 100 μM) was used as positive control inhibitor. GABA (15 μM) was used as agonist. […]
The compound addition sequence was the following: one addition of the EC80 concentration of GABA was added to establish baseline response. […] Peak inward currents in response to the GABA additions in the presence of a single concentration of compound were measured. […]

C[C@H]1c2cccc(C(C)(C)O)c2C[C@H](CO)N1C(=O)Cc1c(Cl)ccc2c1c(Cl)nn2C [compound of formula (I), 2-(3,5-dichloro-1-methyl-indazol-4-yl)-1-[(1S,3R)-3-(hydroxymethyl)-5-(1-hydroxy-1-methyl-ethyl)-1-methyl-3,4-dihydro-1H-isoquinolin-2-yl]ethanone]
fold-induction value, times lower than positive control (Rifampicin) (CYP3A4; compound 1 μM vs Rifampicin 10 μM, 72 h, CYP3A4 activity (midazolam)): at least 7 times lower | induction potential, times lower than positive control (Rifampicin) (CYP3A4; highest fold-induction: compound at highest soluble concentration 3 μM vs Rifampicin 10 μM): about 4 times lower | Erel (relative efficacy) (dopamine D1 receptor [1]; maximal potentiation relative to dopamine maximum response (100%)): about 68% | EC50 (dopamine D1 receptor [1]; potentiation of cAMP in presence of EC20 dopamine (1.1 nM), LMtk cells expressing D1): ~7.94 nM and < 316 nM | Emax at 10 µM (dopamine D1 receptor [2]): < 20% | inhibition at 10 µM [3]: < 0.1%
